These results are taken from patent publication US9296725B2, “Heterocyclyl pyrimidine analogues as TYK2 inhibitors” (Cellzome Limited, priority 2012, dated 2016).

One experiment has as its target T1, TYK2 (Homo sapiens, UniProt P29597).
T1 construct: endogenous in cells; host or cells: Molt4 (ATCC CRL-1582) and Ramos (ATCC CRL-1596), mixed lysate 1:2
The experiment is described as follows: Kinobeads assay, TYK2 (competition binding in mixed Molt4/Ramos cell lysate, dot blot detection). The following applies: Kinobeads assay, Molt4/Ramos lysate; read-out: TYK2 Band (Kinobeads assay potency, IC50). How it is done: (§1) The compounds of the present invention as described in the previous examples were tested in a Kinobeads™ assay as described for ZAP-70 (WO-A 2007/137867). Briefly, test compounds (at various concentrations) and the affinity matrix with the immobilized aminopyrido-pyrimidine ligand 24 were added to cell lysate aliquots and allowed to bind to the proteins in 10 the lysate sample. After the incubation time the beads with captured proteins were separated from the lysate. Bound proteins were then eluted and the presence of TYK2 and JAK2 was detected and quantified using specific antibodies in a dot blot procedure and the Odyssey infrared detection system. Dose response curves for individual kinases were generated and IC50 values calculated. Kinobeads™ assays have been previously described (WO-A 2007/137867; WO-A 2006/134056).
(§2) The affinity matrix was washed two times with 15 mL of 1×DP buffer containing 0.2% NP40 (IGEPAL® CA-630, Sigma, #13021) and then resuspended in 1×DP buffer containing 0.2% NP40 (3% beads slurry). 5×DP buffer: 250 mM Tris-HCl pH 7.4, 25% Glycerol, 7.5 mM MgCl2, 750 mM NaCl, 5 mM Na3VO4; filter the 5×DP buffer through a 0.22 μm filter and store in aliquots at −80° C. The 5×DP buffer is diluted with H2O to 1×DP buffer containing 1 mM DTT and 25 mM NaF.
(§3) Stock solutions of test compounds were prepared in DMSO. In a 96 well plate 30 μL solution of diluted test compounds at 5 mM in DMSO were prepared. Starting with this solution a 1:3 dilution series (9 steps) was prepared. For control experiments (no test compound) a buffer containing 2% DMSO was used.
(§4) Molt4 cells (ATCC catalogue number CRL-1582) and Ramos cells (ATCC catalogue number CRL-1596) were grown in 1 L Spinner flasks (Integra Biosciences, #182101) in suspension in RPMI 1640 medium (Invitrogen, #21875-034) supplemented with 10% Fetal Bovine Serum (Invitrogen) at a density between 0.15×10^6 and 1.2×10^6 cells/mL. Cells were harvested by centrifugation, washed once with 1×PBS buffer (Invitrogen, #14190-094) and cell pellets were frozen in liquid nitrogen and subsequently stored at −80° C. Cells were homogenized in a Potter S homogenizer in lysis buffer: 50 mM Tris-HCl, 0.8% NP40, 5% glycerol, 150 mM NaCl, 1.5 mM MgCl2, 25 mM NaF, 1 mM sodium vanadate, 1 mM DTT, pH 7.5. One complete EDTA-free tablet (protease inhibitor cocktail, Roche Diagnostics, 1873580) per 25 mL buffer was added. The material was dounced 10 times using a mechanized POTTER S, transferred to 50 mL falcon tubes, incubated for 30 minutes on ice and spun down for 10 minutes at 20,000 g at 4° C. (10,000 rpm in Sorvall SLA600, precooled). The supernatant was transferred to an ultracentrifuge (UZ)-polycarbonate tube (Beckmann, 355654) and spun for 1 hour at 100.000 g at 4° C. (33.500 rpm in Ti50.2, precooled). The supernatant was transferred again to a fresh 50 mL falcon tube, the protein concentration was determined by a Bradford assay (BioRad) and samples containing 50 mg of protein per aliquot were prepared. The samples were immediately used for experiments or frozen in liquid nitrogen and stored frozen at −80° C.
(§5) Cell lysate (approximately 50 mg protein per plate) was thawed in a water bath at room temperature and then stored on ice. To the thawed cell lysate 1×DP 0.8% NP40 buffer containing protease inhibitors (1 tablet for 25 mL buffer; EDTA-free protease inhibitor cocktail; Roche Diagnostics 1873580) was added in order to reach a final protein concentration of 10 mg/mL total protein. The diluted cell lysate was stored on ice. Mixed Molt4/Ramos lysate was prepared by combining one volume of Molt4 lysate and two volumes of Ramos lysate (ratio 1:2).
(§6) To a 96 well filter plate (Multiscreen HTS, BV Filter Plates, Millipore #MSBVN1250) were added per well: 100 μL affinity matrix (3% beads slurry), 3 μL of compound solution, and 50 μL of diluted lysate. Plates were sealed and incubated for 3 hours in a cold room on a plate shaker (Heidolph tiramax 1000) at 750 rpm. […]

The next experiment addresses T2, JAK2 (Homo sapiens, UniProt O60674).
T2 construct: endogenous in cells; host or cells: Molt4 (ATCC CRL-1582) and Ramos (ATCC CRL-1596), mixed lysate 1:2
Nature of the experiment: Kinobeads assay, JAK2 (competition binding in mixed Molt4/Ramos cell lysate, dot blot detection). The following applies: read-out: JAK2 Band (Kinobeads assay potency, IC50). Here is the method:
as §1, §2, §3, §4, §5, §6

A word on the IC50: it is the midpoint of a concentration-inhibition curve.

T1 sequence (P29597 whole entry): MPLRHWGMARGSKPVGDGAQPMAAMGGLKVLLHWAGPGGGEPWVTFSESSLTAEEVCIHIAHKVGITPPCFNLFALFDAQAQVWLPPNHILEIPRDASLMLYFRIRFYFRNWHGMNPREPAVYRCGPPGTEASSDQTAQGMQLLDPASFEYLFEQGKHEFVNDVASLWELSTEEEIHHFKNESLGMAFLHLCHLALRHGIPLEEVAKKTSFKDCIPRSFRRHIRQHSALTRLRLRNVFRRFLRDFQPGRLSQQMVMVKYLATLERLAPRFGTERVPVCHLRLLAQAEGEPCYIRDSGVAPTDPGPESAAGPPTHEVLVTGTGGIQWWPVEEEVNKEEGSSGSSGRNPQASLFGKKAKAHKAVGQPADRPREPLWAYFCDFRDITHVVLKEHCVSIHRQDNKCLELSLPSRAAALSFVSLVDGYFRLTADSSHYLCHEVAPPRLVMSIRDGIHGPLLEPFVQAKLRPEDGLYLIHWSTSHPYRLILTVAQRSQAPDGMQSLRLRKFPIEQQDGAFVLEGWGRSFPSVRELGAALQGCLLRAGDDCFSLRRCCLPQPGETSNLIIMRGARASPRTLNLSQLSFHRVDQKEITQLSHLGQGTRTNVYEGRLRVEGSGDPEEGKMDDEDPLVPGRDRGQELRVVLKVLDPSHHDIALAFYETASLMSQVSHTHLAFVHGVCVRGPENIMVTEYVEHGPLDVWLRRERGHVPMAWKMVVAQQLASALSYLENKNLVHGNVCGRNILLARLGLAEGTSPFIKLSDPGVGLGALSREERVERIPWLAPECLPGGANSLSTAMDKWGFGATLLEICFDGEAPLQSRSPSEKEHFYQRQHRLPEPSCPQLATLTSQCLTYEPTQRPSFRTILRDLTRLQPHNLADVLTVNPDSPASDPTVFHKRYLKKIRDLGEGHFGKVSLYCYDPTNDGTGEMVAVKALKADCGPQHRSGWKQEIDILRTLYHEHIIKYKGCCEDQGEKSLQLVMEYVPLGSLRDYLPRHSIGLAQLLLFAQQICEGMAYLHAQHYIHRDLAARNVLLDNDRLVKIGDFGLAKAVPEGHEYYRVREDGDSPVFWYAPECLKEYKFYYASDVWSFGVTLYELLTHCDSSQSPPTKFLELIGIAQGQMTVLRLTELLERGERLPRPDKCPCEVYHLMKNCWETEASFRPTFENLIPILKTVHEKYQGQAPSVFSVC
T2 sequence (O60674 whole entry): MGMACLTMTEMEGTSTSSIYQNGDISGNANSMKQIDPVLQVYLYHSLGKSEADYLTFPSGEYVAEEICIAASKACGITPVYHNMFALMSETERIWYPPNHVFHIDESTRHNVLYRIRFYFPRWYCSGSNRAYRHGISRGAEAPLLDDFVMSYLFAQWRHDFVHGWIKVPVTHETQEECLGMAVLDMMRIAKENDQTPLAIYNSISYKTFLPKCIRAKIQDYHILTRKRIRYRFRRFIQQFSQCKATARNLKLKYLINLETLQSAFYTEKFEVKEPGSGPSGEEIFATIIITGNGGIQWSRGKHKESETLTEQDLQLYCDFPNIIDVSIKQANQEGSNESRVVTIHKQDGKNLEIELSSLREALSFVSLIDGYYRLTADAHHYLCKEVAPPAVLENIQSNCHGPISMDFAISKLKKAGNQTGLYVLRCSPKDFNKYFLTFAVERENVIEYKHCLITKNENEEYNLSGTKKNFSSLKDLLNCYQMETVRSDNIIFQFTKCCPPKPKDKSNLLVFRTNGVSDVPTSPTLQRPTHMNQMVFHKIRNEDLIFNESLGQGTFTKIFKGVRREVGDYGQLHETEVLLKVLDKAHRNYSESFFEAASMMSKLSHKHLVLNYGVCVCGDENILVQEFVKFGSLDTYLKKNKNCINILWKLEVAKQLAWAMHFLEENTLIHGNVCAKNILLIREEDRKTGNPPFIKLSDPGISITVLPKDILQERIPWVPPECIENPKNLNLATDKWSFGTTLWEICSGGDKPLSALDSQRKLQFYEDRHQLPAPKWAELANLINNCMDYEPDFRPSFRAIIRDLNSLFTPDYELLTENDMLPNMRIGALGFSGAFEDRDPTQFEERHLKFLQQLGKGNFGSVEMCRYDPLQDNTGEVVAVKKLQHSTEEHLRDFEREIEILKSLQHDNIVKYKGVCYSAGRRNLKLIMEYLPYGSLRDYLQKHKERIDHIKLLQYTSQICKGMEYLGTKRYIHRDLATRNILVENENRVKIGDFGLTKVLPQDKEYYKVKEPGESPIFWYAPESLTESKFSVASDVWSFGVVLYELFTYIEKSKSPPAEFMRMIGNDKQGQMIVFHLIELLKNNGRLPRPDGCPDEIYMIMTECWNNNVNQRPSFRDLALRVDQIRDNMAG

Consider `Cc1cnc(Nc2cnn(CC(=O)N(C)C)c2)nc1NCc1c(F)cccc1F` [Example I-299], for which the results for the IC50 at TYK2 and at JAK2 were not above 10 nM and 100 to 1000 nM, respectively.
For `O=C(Cn1cc(Nc2ncc(F)c(NCc3cccc(OC(F)F)c3)n2)cn1)NC1CC1` [Example I-46], in that order: 10 to 100 nM and more than 10000 nM.
Take `N#C[C@H]1CCN(C(=O)Cn2cc(Nc3ncc(Cl)c(NCc4ccccc4)n3)cn2)C1` [Example I-270]: the values for the half-inhibitory concentration (IC50) on TYK2 and at JAK2 were 10 to 100 nM and 1000 to 10000 nM, respectively.
On to `O=C(Cn1cc(Nc2ncc(Cl)c(NCc3ccccn3)n2)cn1)N1CCOCC1` [Example I-338], for which the figures for the IC50 at TYK2 and at JAK2 were 100 to 1000 nM and 1000 to 10000 nM, respectively.
For `OCCn1cc(Nc2ncc(Cl)c(NCc3c(F)ccc(F)c3F)n2)cn1` [Example I-373], in that order: not above 10 nM and 10 to 100 nM.
Regarding `Cc1cnc(Nc2cnn(CC(=O)NC(C)C)c2)nc1NCc1c(F)cc(F)cc1F` [Example I-32], the IC50 at TYK2 was not above 10 nM; on JAK2, 1000 to 10000 nM.
The like results for `N#C[C@@H]1CCN(C(=O)Cn2cc(Nc3ncc(Cl)c(NCc4ccccc4)n3)cn2)C1` [Example I-271] were, in that order, 10 to 100 nM and 100 to 1000 nM.
For the compound `COc1ccc(F)c(CNc2nc(Nc3cnn(CC(=O)N(C)C)c3)ncc2Cl)c1F` [Example I-376], the IC50 was in the range of 10 to 100 nM at TYK2 and 100 to 1000 nM on JAK2.
For `CC(C)NC(=O)Cn1cc(Nc2nccc(NCc3c(F)cc(C#N)cc3F)n2)cn1` [Example I-1, 2-(4-((4-((4-cyano-2,6-difluorobenzyl)amino)pyrimidin-2-yl)amino)-1H-pyrazol-1-yl)-N-isopropylacetamide], in that order: 10 to 100 nM and 1000 to 10000 nM.
The like results for `CS(=O)(=O)Cn1cc(Nc2ncc(Cl)c(NCc3ccccc3)n2)cn1` [Example I-254] were, in that order, 100 to 1000 nM and 1000 to 10000 nM.
As for `Cc1cnc(Nc2cnn(CCO)c2)nc1NCc1ccc(S(N)(=O)=O)cc1` [Example I-8], the IC50 on TYK2 fell in the range of 10 to 100 nM; at JAK2 it was 1000 to 10000 nM.
In the case of `C[C@@H](CO)NC(=O)Cn1cc(Nc2nccc(NCc3c(F)cc(F)cc3F)n2)cn1` [Example I-75], the results for the IC50 at TYK2 and on JAK2 were not above 10 nM and more than 10000 nM, respectively.
For `Cc1cnc(Nc2cnn(CC(=O)NC3CCOC3)c2)nc1NCc1c(F)cc(F)cc1F` (centres unmarked) [Example I-37], in that order: 10 to 100 nM and 100 to 1000 nM.
For the compound `COc1ccc(F)c(CNc2nc(Nc3cnn(C)c3)ncc2C)c1F` [Example I-302], the figures for the 50% inhibitory concentration (IC50) at TYK2 and at JAK2 were 10 to 100 nM and 100 to 1000 nM, respectively.
Regarding `C[C@H](C(N)=O)n1cc(Nc2ncc(Cl)c(NCc3ccccc3)n2)cn1` [Example I-290], the values for the IC50 at TYK2 and on JAK2 were 100 to 1000 nM and 1000 to 10000 nM, respectively.
For `CC1(C)COCCN1C(=O)Cn1cc(Nc2nccc(NCc3c(F)cc(F)cc3F)n2)cn1` [Example I-459], in that order: 10 to 100 nM and more than 10000 nM.
For `Cn1cc(Nc2ncc(Cl)c(NCc3ccccc3F)n2)cn1` [Example I-173], in that order: 100 to 1000 nM and 100 to 1000 nM.
For `OCCn1cc(Nc2ncc(Cl)c(NCc3ccccc3F)n2)cn1` [Example I-174], in that order: 10 to 100 nM and 100 to 1000 nM.
Consider `COc1ccc(F)c(CNc2nc(Nc3cnn(CC(=O)OC(C)C)c3)ncc2F)c1F` [Example I-47], for which the values for the IC50 on TYK2 and on JAK2 were 10 to 100 nM and more than 10000 nM, respectively.
The like results for `CS(=O)(=O)c1ccccc1CNc1nc(Nc2cnn(CC(F)F)c2)ncc1F` [Example I-477] were, in that order, 1000 to 10000 nM and 1000 to 10000 nM.
Turning to `OCCn1cc(Nc2ncc(F)c(NCc3c(F)ccc(F)c3F)n2)cn1` [Example I-202], the concentration for half-maximal inhibition (IC50) at TYK2 is not above 10 nM; at JAK2 it was 100 to 1000 nM.
`CC1(C)CN(C(=O)Cn2cc(Nc3nccc(NCc4c(F)cc(F)cc4F)n3)cn2)C1` [Example I-458]: the IC50 on TYK2 is 10 to 100 nM; at JAK2, more than 10000 nM.
Take `NC(=O)Cn1cc(Nc2ncc(Cl)c(NCc3c(F)cccc3F)n2)cn1` [Example I-240]: the IC50 was 10 to 100 nM at TYK2 and 1000 to 10000 nM on JAK2.
The like results for `CN(C)CCNC(=O)Cn1cc(Nc2ncc(Cl)c(NCc3ccccc3)n2)cn1` [Example I-221] were, in that order, 100 to 1000 nM and 100 to 1000 nM.
For `Fc1cc(F)c(CNc2nc(Nc3cnn(CC(F)F)c3)ncc2F)c(F)c1` [Example I-464], in that order: 100 to 1000 nM and more than 10000 nM.
Take `Cn1cc(Nc2ncc(Cl)c(NCc3cc(OC(F)F)ccc3F)n2)cn1` [Example I-412]: the IC50 on TYK2 lay within 10 to 100 nM; on JAK2 it was 1000 to 10000 nM.
The like results for `O=C(Cn1cc(Nc2nccc(NCc3c(F)cccc3F)n2)cn1)N1CCOCC1` [Example I-28] were, in that order, not above 10 nM and 1000 to 10000 nM.
The like results for `OCCn1cc(Nc2ncc(F)c(NCc3c(F)cc(F)cc3F)n2)cn1` [Example I-17] were, in that order, 10 to 100 nM and 1000 to 10000 nM.
The like results for `O=C(Cn1cc(Nc2ncc(Cl)c(NCc3ccccc3)n2)cn1)N1CCC2(CC1)COC2` [Example I-239] were, in that order, 100 to 1000 nM and 1000 to 10000 nM.
As to `CS(=O)(=O)c1ccccc1CNc1nc(Nc2cnn(CC(=O)N3CCOCC3)c2)ncc1Cl` [Example I-453], the IC50 on TYK2 and on JAK2 was 100 to 1000 nM throughout.
As to `O=C(Cn1cc(Nc2ncc(Cl)c(NCc3cc(F)cc(F)c3)n2)cn1)N1CCOCC1` [Example I-162], the IC50 at TYK2 and at JAK2 was 10 to 100 nM in each case.
Regarding `Fc1cc(F)c(F)c(CNc2nc(Nc3cnn(CC(F)F)c3)ncc2Cl)c1` [Example I-468], the 50% inhibitory concentration (IC50) at TYK2 and on JAK2 was 100 to 1000 nM throughout.
As to `CC(NC(=O)Cn1cc(Nc2nccc(NCc3c(F)cc(F)cc3F)n2)cn1)C1CCCO1` (centres unmarked) [Example I-431], the concentration for half-maximal inhibition (IC50) on TYK2 was 10 to 100 nM; on JAK2, more than 10000 nM.
As to `C[C@@H](CO)NC(=O)Cn1cc(Nc2nccc(NCc3c(Cl)ccc(Cl)c3F)n2)cn1` [Example I-121], the 50% inhibitory concentration (IC50) at TYK2 was not above 10 nM; at JAK2, 100 to 1000 nM.
`CNS(=O)(=O)c1ccccc1CNc1nc(Nc2cnn(C)c2)ncc1Cl` [Example I-473]: the IC50 on TYK2 and on JAK2 was 100 to 1000 nM throughout.
Consider `Cc1cnc(Nc2cnn(C)c2)nc1NCc1cc(F)cc(F)c1F` [Example I-342], for which the IC50 on TYK2 and at JAK2 was 10 to 100 nM each time.
Turning to `Cn1cc(Nc2ncc(Cl)c(NCc3cccc(C#N)c3)n2)cn1` [Example I-159], the half-maximal inhibitory concentration (IC50) was in the range of 10 to 100 nM on TYK2 and 1000 to 10000 nM at JAK2.
As for `NS(=O)(=O)c1cc(F)c(CNc2nc(Nc3cnn(CC(=O)N4CCCCC4)c3)ncc2F)c(F)c1` [Example I-31], the half-inhibitory concentration (IC50) was in the range of 10 to 100 nM at TYK2 and 1000 to 10000 nM at JAK2.
With `NS(=O)(=O)c1ccc(CNc2nc(Nc3cnn(CCO)c3)ncc2F)cc1` [Example I-9], the 50% inhibitory concentration (IC50) on TYK2 was 10 to 100 nM; on JAK2, more than 10000 nM.
Regarding `O=C(Cn1cc(Nc2ncc(F)c(NCc3cc(F)cc(C(F)(F)F)c3)n2)cn1)N1CCOCC1` [Example I-332], the IC50 on TYK2 was 100 to 1000 nM; at JAK2, 1000 to 10000 nM.
